Test results reported in publication PMC10659578, “Mechanism of stepwise electron transfer in six-transmembrane epithelial antigen of the prostate (STEAP) 1 and 2” (eLife, 2023).

Assays:
STEAP2 = biological target: T1, STEAP2 (Homo sapiens, UniProt Q8NFT2); test: cryo-EM structure, […] Å; assay type: binding
T1 construct: full-length (490 residues), C-terminal His6-tag cleaved by TEV protease; High Five or Sf9 insect cells; LMNG or GDN; homotrimer
T1 sequence (Q8NFT2 1-490): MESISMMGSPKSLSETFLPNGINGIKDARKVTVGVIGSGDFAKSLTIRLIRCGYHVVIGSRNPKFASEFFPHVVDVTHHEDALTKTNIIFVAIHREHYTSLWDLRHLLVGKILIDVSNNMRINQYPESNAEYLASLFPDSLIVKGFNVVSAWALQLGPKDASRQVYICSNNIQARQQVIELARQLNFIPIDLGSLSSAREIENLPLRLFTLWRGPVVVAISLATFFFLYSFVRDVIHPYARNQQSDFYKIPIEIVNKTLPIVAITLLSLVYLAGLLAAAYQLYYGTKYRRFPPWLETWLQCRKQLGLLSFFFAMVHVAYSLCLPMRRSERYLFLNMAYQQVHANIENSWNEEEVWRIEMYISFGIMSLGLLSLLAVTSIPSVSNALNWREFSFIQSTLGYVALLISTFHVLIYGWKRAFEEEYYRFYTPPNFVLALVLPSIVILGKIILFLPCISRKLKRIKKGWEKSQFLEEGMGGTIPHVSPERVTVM

[1] = biological target: T2, cytochrome b5 reductase (b5R) (Mus musculus, UniProt Q9DCN2); test: rapid-scan stopped-flow FAD reduction; assay type: biochemical; details: anaerobic, 1.5 μM b5R with 1.5 μM STEAP1 and 10 μM NADH
T2 construct: gene Cyb5r3
T2 sequence (Q9DCN2 24-301): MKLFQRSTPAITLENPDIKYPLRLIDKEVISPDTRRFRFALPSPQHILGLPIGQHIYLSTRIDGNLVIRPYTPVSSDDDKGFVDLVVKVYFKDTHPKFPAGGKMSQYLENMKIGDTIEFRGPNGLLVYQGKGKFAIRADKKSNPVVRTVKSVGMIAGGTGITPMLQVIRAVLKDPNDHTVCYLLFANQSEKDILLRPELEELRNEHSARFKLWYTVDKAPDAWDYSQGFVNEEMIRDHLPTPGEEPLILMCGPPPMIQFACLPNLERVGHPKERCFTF

## NC(=O)c1ccc[n+]([C@@H]2O[C@H](COP(=O)(O)OP(=O)(O)OC[C@H]3O[C@@H](n4cnc5c(N)ncnc54)[C@H](OP(=O)(O)O)[C@@H]3O)[C@@H](O)[C@H]2O)c1 [NADP^+]
STEAP2; complex with FAD and heme, OxRD site
  cryo-EM structure, 3.2 Å: Heme, FAD, and NADP^+ are unambiguously resolved in the density map

## Cc1cc2nc3c(=O)[nH]c(=O)nc-3n(C[C@H](O)[C@H](O)[C@H](O)COP(=O)(O)OP(=O)(O)OC[C@H]3O[C@@H](n4cnc5c(N)ncnc54)[C@H](O)[C@@H]3O)c2cc1C [FAD]
STEAP2; complex with NADP+ and heme, extended conformation, isoalloxazine ring in TMD, adenine stacks on Trp152 of OxRD
  cryo-EM structure, 3.2 Å: Heme, FAD, and NADP^+ are unambiguously resolved in the density map

## NC(=O)C1=CN([C@@H]2O[C@H](COP(=O)(O)OP(=O)(O)OC[C@H]3O[C@@H](n4cnc5c(N)ncnc54)[C@H](O)[C@@H]3O)[C@@H](O)[C@H]2O)C=CC1 [NADH]
[1]
  rapid-scan stopped-flow FAD reduction: intermediate B is due to fast FAD reduction in b5R by NADH
